Laboratory results published in US20050019258A1, “Compound testing method” (priority 2003, published 2005).
Like-named read-outs stand apart in the source and are kept apart here.

Experiments:
[1] = test system: patients with detrusor hyperreflexia; conditions: 13 patients positive at baseline, cited from earlier work
guinea-pig bladder [2] = assay: Ice-water test (IWT) in anaesthetised guinea-pig bladder, effect of RTX treatment; format: in vivo
Protocol: (§1) Anaesthesia was induced in female Dunkin-Hartley guinea-pigs (326-416 g) by exposure to 4% halothane in oxygen. A surgical level of anaesthesia was then obtained by administration of 1.2 g/kg i.p. urethane followed by 40 mg/kg α-chloralose via a catheterised jugular vein. Supplementary doses of urethane (0.05 g/kg i.v.) were given if required. Rectal temperature was maintained between 36.5 and 37° C. via a Harvard homeothermic blanket control unit and additional heating lamp. […] The trachea was cannulated and the animals artificially respired using an Ugo-Basile rodent ventilator. A carotid arterial blood sample (0.3 ml) was analysed for blood gases using a GEM Premier 3000 analyser and the ventilation volume adjusted, with air intake enriched with O2 if necessary, to set the level of blood PO2>70 mmHg, PCO2<40 mmHg and pH between 7.36 and 7.46.
(§2) The urinary bladder was exposed via a midline laparotomy and a double lumen catheter inserted into the lumen through an incision in the dome. The catheter was tied in place below the flanged tip of the outer tubing, followed by closure of the abdominal incision. […] The amplified EUS electromyogram (EUS EMG), the integrated EUS EMG and bladder pressure signals were recorded using Spike2 software (Cambridge Electronic Design). […]

guinea-pig bladder [3] = assay: Ice-water test (IWT) in anaesthetised guinea-pig bladder, effect of menthol; format: in vivo
Protocol: as §1, §2

bladder cooling reflex [4] = conditions: 0.5 mM menthol in patients; cited from earlier work
bladder cooling reflex [5] = conditions: 0.6 mM menthol in cats; cited from earlier work

SMILES: C=C(C)[C@]12C[C@@H](C)[C@@]34O[C@](Cc5ccccc5)(O[C@@H]1[C@@H]3C=C(COC(=O)Cc1ccc(O)c(OC)c1)C[C@]1(O)C(=O)C(C)=C[C@@H]41)O2 [RTX, resiniferatoxin]
- additional patients in whom IWT became negative ([1]; at 14 days, 50 or 100 nM RTX): 2
- number of cases with negative IWT ([1]; at 90 days post treatment, 50 or 100 nM RTX): 8 cases
- number of patients in whom IWT became negative ([1]; immediately after instillation of 50 or 100 nM RTX): 4 patients
- desensitisation of the 3° C. induced reduction in TV (guinea-pig bladder [2]; 500 nM RTX infused into bladder): Desensitisation
- difference of TV to 3° C. vs TV for 38° C. control response before RTX (guinea-pig bladder [2]; 500 nM RTX, 100 min post RTX infusion, 95% C.I. −0.51, 0.20, p>0.05): −0.16

SMILES: CC1CCC(C(C)C)C(O)C1 (stereo not drawn) [menthol]
- threshold volume (TV) for micturition at 3° C. following menthol treatment (guinea-pig bladder [3]; 0.6 mM menthol infused into bladder, 3° C. saline infusion, TV before menthol 1.90 ml, n=4): 0.95 mL
- difference in TV at 3° C. after menthol vs before menthol (guinea-pig bladder [3]; 0.6 mM menthol, 95% C.I. −1.33, −0.57, p<0.001): −0.95
- effect on bladder cooling reflex (shift of threshold temperature towards higher temperatures) (bladder cooling reflex [4]): Potentiation of the bladder cooling reflex
- effect on bladder cooling reflex (shift of threshold temperature towards higher temperatures) (bladder cooling reflex [5]): Potentiation of the bladder cooling reflex
